# Results: patent publication US9957263B2, “Bromodomain inhibitors” (AbbVie Inc., priority 2013, dated 2018)
# How the values were obtained:
# BRD4 (BDII_E352-M457) = BRD4 (BDII_E352-M457) (Homo sapiens (Human), UniProt O60885); test: TR-FRET bromodomain binding assay, BRD4 second bromodomain; details: His-tagged BD2, Alexa647-labeled probe 30 nM
# Method in brief: (§1)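 His-tagged BRD4 BD1 (K57-E168) or BD2 at 8 nM, 1 nM Eu-anti-His antibody and Alexa647 BET-inhibitor probe (100 nM for BDI, 30 nM for BDII) in pH 6.0 phosphate buffer, 2% DMSO, compound 50 μM-0.85 nM; 1 h at RT, TR-FRET read. IC50 by 4-parameter fit, Ki from probe Kd and concentration.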
# BRD4 (BDI_K57-E168) = BRD4 (BDI_K57-E168) (Homo sapiens (Human), UniProt O60885); test: TR-FRET bromodomain binding assay, BRD4 first bromodomain; details: His-tagged BD1, Alexa647-labeled probe 100 nM
# Method in brief: as §1
smiles,measurement,setting,value
"Cn1cc(-c2cc(S(C)(=O)=O)ccc2Oc2cccc(NCc3ccccc3C#N)c2)c2cc[nH]c2c1=O [Example 71, 2-[({3-[2-(6-methyl-7-oxo-6,7-dihydro-1H-pyrrolo[2,3-c]pyridin-4-yl)-4-(methylsulfonyl)phenoxy]phenyl}amino)methyl]benzonitrile]",Ki,BRD4 (BDII_E352-M457),19 nM
same,Ki,BRD4 (BDI_K57-E168),33 nM
"Cn1cc(-c2cc(S(C)(=O)=O)ccc2Oc2cccc(NCc3ccc(F)cc3Cl)c2)c2cc[nH]c2c1=O [Example 72, 4-[2-{3-[(2-chloro-4-fluorobenzyl)amino]phenoxy}-5-(methylsulfonyl)phenyl]-6-methyl-1,6-dihydro-7H-pyrrolo[2,3-c]pyridin-7-one]",Ki,BRD4 (BDII_E352-M457),4.1 nM
same,Ki,BRD4 (BDI_K57-E168),7.4 nM
"Cn1cc(-c2cc(S(C)(=O)=O)ccc2Oc2cccc(NCc3cc(F)cc(F)c3)c2)c2cc[nH]c2c1=O [Example 73, 4-[2-{3-[(3,5-difluorobenzyl)amino]phenoxy}-5-(methylsulfonyl)phenyl]-6-methyl-1,6-dihydro-7H-pyrrolo[2,3-c]pyridin-7-one]",Ki,BRD4 (BDII_E352-M457),3.5 nM
same,Ki,BRD4 (BDI_K57-E168),5.6 nM
"CN(C)CCCOc1ccc(CNc2cccc(Oc3ccc(S(C)(=O)=O)cc3-c3cn(C)c(=O)c4[nH]ccc34)c2)cc1 [Example 74, 4-{2-[3-({4-[3-(dimethylamino)propoxy]benzyl}amino)phenoxy]-5-(methylsulfonyl)phenyl}-6-methyl-1,6-dihydro-7H-pyrrolo[2,3-c]pyridin-7-one]",Ki,BRD4 (BDII_E352-M457),1.4 nM
same,Ki,BRD4 (BDI_K57-E168),4.3 nM
"CN(C)c1cccc(CNc2cccc(Oc3ccc(S(C)(=O)=O)cc3-c3cn(C)c(=O)c4[nH]ccc34)c2)c1 [Example 75, 4-[2-(3-{[3-(dimethylamino)benzyl]amino}phenoxy)-5-(methylsulfonyl)phenyl]-6-methyl-1,6-dihydro-7H-pyrrolo[2,3-c]pyridin-7-one]",Ki,BRD4 (BDII_E352-M457),2.9 nM
same,Ki,BRD4 (BDI_K57-E168),8.5 nM
"Cn1cc(-c2cc(S(C)(=O)=O)ccc2Oc2cccc(NCc3ccc4c(c3)OCCO4)c2)c2cc[nH]c2c1=O [Example 76, 4-[2-{3-[(2,3-dihydro-1,4-benzodioxin-6-ylmethyl)amino]phenoxy}-5-(methylsulfonyl)phenyl]-6-methyl-1,6-dihydro-7H-pyrrolo[2,3-c]pyridin-7-one]",Ki,BRD4 (BDII_E352-M457),1.1 nM
same,Ki,BRD4 (BDI_K57-E168),3.3 nM
"Cn1cc(-c2cc(S(C)(=O)=O)ccc2Oc2cccc(NCC3CCOC3)c2)c2cc[nH]c2c1=O (stereo not shown) [Example 77, 6-methyl-4-[5-(methylsulfonyl)-2-{3-[(tetrahydrofuran-3-ylmethyl)amino]phenoxy}phenyl]-1,6-dihydro-7H-pyrrolo[2,3-c]pyridin-7-one]",Ki,BRD4 (BDII_E352-M457),2.8 nM
same,Ki,BRD4 (BDI_K57-E168),11 nM
"CC(=O)Nc1ccc(CNc2cccc(Oc3ccc(S(C)(=O)=O)cc3-c3cn(C)c(=O)c4[nH]ccc34)c2)cc1 [Example 78, N-{4-[({3-[2-(6-methyl-7-oxo-6,7-dihydro-1H-pyrrolo[2,3-c]pyridin-4-yl)-4-(methylsulfonyl)phenoxy]phenyl}amino)methyl]phenyl}acetamide]",Ki,BRD4 (BDII_E352-M457),0.6 nM
same,Ki,BRD4 (BDI_K57-E168),0.9 nM
"COc1ccc(CNc2cccc(Oc3ccc(S(C)(=O)=O)cc3-c3cn(C)c(=O)c4[nH]ccc34)c2)cc1 [Example 79, 4-[2-{3-[(4-methoxybenzyl)amino]phenoxy}-5-(methylsulfonyl)phenyl]-6-methyl-1,6-dihydro-7H-pyrrolo[2,3-c]pyridin-7-one]",Ki,BRD4 (BDII_E352-M457),2.7 nM
same,Ki,BRD4 (BDI_K57-E168),7.8 nM
"Cn1cc(-c2cc(S(C)(=O)=O)ccc2Oc2cccc(NCC3CC3)c2)c2cc[nH]c2c1=O [Example 80, 4-[2-{3-[(cyclopropylmethyl)amino]phenoxy}-5-(methylsulfonyl)phenyl]-6-methyl-1,6-dihydro-7H-pyrrolo[2,3-c]pyridin-7-one]",Ki,BRD4 (BDII_E352-M457),4.6 nM
same,Ki,BRD4 (BDI_K57-E168),19 nM
"Cn1cc(-c2cc(S(C)(=O)=O)ccc2Oc2cccc(NCCC3CCCC3)c2)c2cc[nH]c2c1=O [Example 81, 4-[2-{3-[(2-cyclopentylethyl)amino]phenoxy}-5-(methylsulfonyl)phenyl]-6-methyl-1,6-dihydro-7H-pyrrolo[2,3-c]pyridin-7-one]",Ki,BRD4 (BDII_E352-M457),10 nM
same,Ki,BRD4 (BDI_K57-E168),35 nM
"CCS(=O)(=O)c1ccc(Oc2ccc(Cl)cc2C#CCN2CCOCC2)c(-c2cn(C)c(=O)c3[nH]ccc23)c1 [Example 82, 4-[2-{4-chloro-2-[3-(morpholin-4-yl)prop-1-yn-1-yl]phenoxy}-5-(ethylsulfonyl)phenyl]-6-methyl-1,6-dihydro-7H-pyrrolo[2,3-c]pyridin-7-one]",Ki,BRD4 (BDII_E352-M457),8.5 nM
same,Ki,BRD4 (BDI_K57-E168),39 nM
"CCS(=O)(=O)c1ccc(Oc2ccc(Cl)cc2CCCN2CCOCC2)c(-c2cn(C)c(=O)c3[nH]ccc23)c1 [Example 83, 4-[2-{4-chloro-2-[3-(morpholin-4-yl)propyl]phenoxy}-5-(ethylsulfonyl)phenyl]-6-methyl-1,6-dihydro-7H-pyrrolo[2,3-c]pyridin-7-one]",Ki,BRD4 (BDII_E352-M457),3.5 nM
same,Ki,BRD4 (BDI_K57-E168),5.3 nM
"Cn1cc(-c2cc(S(C)(=O)=O)ccc2NC2CCN(S(=O)(=O)c3ccccc3)CC2)c2cc[nH]c2c1=O [Example 84, 6-methyl-4-[5-(methylsulfonyl)-2-{[1-(phenylsulfonyl)piperidin-4-yl]amino}phenyl]-1,6-dihydro-7H-pyrrolo[2,3-c]pyridin-7-one]",Ki,BRD4 (BDII_E352-M457),8.9 nM
same,Ki,BRD4 (BDI_K57-E168),4.7 nM
"CN(C)CC(=O)N1CCC(Nc2ccc(S(C)(=O)=O)cc2-c2cn(C)c(=O)c3[nH]ccc23)CC1 [Example 85, 4-[2-({1-[(dimethylamino)acetyl]piperidin-4-yl}amino)-5-(methylsulfonyl)phenyl]-6-methyl-1,6-dihydro-7H-pyrrolo[2,3-c]pyridin-7-one]",Ki,BRD4 (BDII_E352-M457),60 nM
same,Ki,BRD4 (BDI_K57-E168),8 nM
"CSCCCN1CCC(Nc2ccc(S(C)(=O)=O)cc2-c2cn(C)c(=O)c3[nH]ccc23)CC1 [Example 86, 6-methyl-4-[2-({1-[3-(methylsulfanyl)propyl]piperidin-4-yl}amino)-5-(methylsulfonyl)phenyl]-1,6-dihydro-7H-pyrrolo[2,3-c]pyridin-7-one]",Ki,BRD4 (BDII_E352-M457),75 nM
same,Ki,BRD4 (BDI_K57-E168),24 nM
"CC(=O)Nc1ccc(CN2CCC(Nc3ccc(S(C)(=O)=O)cc3-c3cn(C)c(=O)c4[nH]ccc34)CC2)cc1 [Example 87, N-{4-[(4-{[2-(6-methyl-7-oxo-6,7-dihydro-1H-pyrrolo[2,3-c]pyridin-4-yl)-4-(methylsulfonyl)phenyl]amino}piperidin-1-yl)methyl]phenyl}acetamide]",Ki,BRD4 (BDII_E352-M457),34 nM
same,Ki,BRD4 (BDI_K57-E168),21 nM
"COc1cc(CN2CCC(Nc3ccc(S(C)(=O)=O)cc3-c3cn(C)c(=O)c4[nH]ccc34)CC2)cc(OC)c1OC [Example 88, 6-methyl-4-[5-(methylsulfonyl)-2-{[1-(3,4,5-trimethoxybenzyl)piperidin-4-yl]amino}phenyl]-1,6-dihydro-7H-pyrrolo[2,3-c]pyridin-7-one]",Ki,BRD4 (BDII_E352-M457),23 nM
same,Ki,BRD4 (BDI_K57-E168),4.9 nM
"Cn1cc(-c2cc(S(C)(=O)=O)ccc2NC2CCN(Cc3cccs3)CC2)c2cc[nH]c2c1=O [Example 89, 6-methyl-4-[5-(methylsulfonyl)-2-{[1-(thiophen-2-ylmethyl)piperidin-4-yl]amino}phenyl]-1,6-dihydro-7H-pyrrolo[2,3-c]pyridin-7-one]",Ki,BRD4 (BDII_E352-M457),44 nM
same,Ki,BRD4 (BDI_K57-E168),22 nM
"CN(C)CCCOc1ccc(CN2CCC(Nc3ccc(S(C)(=O)=O)cc3-c3cn(C)c(=O)c4[nH]ccc34)CC2)cc1 [Example 90, 4-{2-[(1-{4-[3-(dimethylamino)propoxy]benzyl}piperidin-4-yl)amino]-5-(methylsulfonyl)phenyl}-6-methyl-1,6-dihydro-7H-pyrrolo[2,3-c]pyridin-7-one]",Ki,BRD4 (BDII_E352-M457),25 nM
same,Ki,BRD4 (BDI_K57-E168),14 nM
"CSCC(=O)N1CCC(Nc2ccc(S(C)(=O)=O)cc2-c2cn(C)c(=O)c3[nH]ccc23)CC1 [Example 91, 6-methyl-4-[2-({1-[(methylsulfanyl)acetyl]piperidin-4-yl}amino)-5-(methylsulfonyl)phenyl]-1,6-dihydro-7H-pyrrolo[2,3-c]pyridin-7-one]",Ki,BRD4 (BDII_E352-M457),7.5 nM
same,Ki,BRD4 (BDI_K57-E168),5 nM
"COc1ccc(CCC(=O)N2CCC(Nc3ccc(S(C)(=O)=O)cc3-c3cn(C)c(=O)c4[nH]ccc34)CC2)c(OC)c1OC [Example 92, 6-methyl-4-[5-(methylsulfonyl)-2-({1-[3-(2,3,4-trimethoxyphenyl)propanoyl]piperidin-4-yl}amino)phenyl]-1,6-dihydro-7H-pyrrolo[2,3-c]pyridin-7-one]",Ki,BRD4 (BDII_E352-M457),33 nM
same,Ki,BRD4 (BDI_K57-E168),15 nM
"Cn1cc(-c2cc(S(C)(=O)=O)ccc2NC2CCN(C(=O)C3(C(N)=O)CC3)CC2)c2cc[nH]c2c1=O [Example 93, 1-[(4-{[2-(6-methyl-7-oxo-6,7-dihydro-1H-pyrrolo[2,3-c]pyridin-4-yl)-4-(methylsulfonyl)phenyl]amino}piperidin-1-yl)carbonyl]cyclopropanecarboxamide]",Ki,BRD4 (BDII_E352-M457),24 nM
same,Ki,BRD4 (BDI_K57-E168),19 nM
"COC1CCC(C(=O)N2CCC(Nc3ccc(S(C)(=O)=O)cc3-c3cn(C)c(=O)c4[nH]ccc34)CC2)CC1 (stereo not shown) [Example 94, 4-[2-({1-[(4-methoxycyclohexyl)carbonyl]piperidin-4-yl}amino)-5-(methylsulfonyl)phenyl]-6-methyl-1,6-dihydro-7H-pyrrolo[2,3-c]pyridin-7-one]",Ki,BRD4 (BDII_E352-M457),20 nM
same,Ki,BRD4 (BDI_K57-E168),30 nM
"COCC(=O)N1CCC(Nc2ccc(S(C)(=O)=O)cc2-c2cn(C)c(=O)c3[nH]ccc23)CC1 [Example 95, 4-[2-{[1-(methoxyacetyl)piperidin-4-yl]amino}-5-(methylsulfonyl)phenyl]-6-methyl-1,6-dihydro-7H-pyrrolo[2,3-c]pyridin-7-one]",Ki,BRD4 (BDII_E352-M457),16 nM
same,Ki,BRD4 (BDI_K57-E168),22 nM
"CN1CCN(CC(=O)N2CCC(Nc3ccc(S(C)(=O)=O)cc3-c3cn(C)c(=O)c4[nH]ccc34)CC2)CC1 [Example 96, 6-methyl-4-[2-({1-[(4-methylpiperazin-1-yl)acetyl]piperidin-4-yl}amino)-5-(methylsulfonyl)phenyl]-1,6-dihydro-7H-pyrrolo[2,3-c]pyridin-7-one]",Ki,BRD4 (BDII_E352-M457),21 nM
same,Ki,BRD4 (BDI_K57-E168),17 nM
